Measured values from patent publication US20090088483A1, “AQUEOUS SUSPENSIONS OR DISPERSIONS OF INORGANIC PIGMENTS CONTAINING A MIXTURE CONSISTING OF DIALDEHYDES AND FORMALDEHYDE CLEAVERS” (priority 2005, published 2009).

How the values were obtained:
[1] = test system: microbe spectrum of a microbially contaminated slurry; assay: quantitative test of microbial count reduction in a microbially contaminated slurry; format: cell-based; parameters: unit not given here; conditions: PCC slurry
Protocol: Here, the quantitative test was carried out to determine how rapidly (1 hour to 7 days) the stated amounts of active substance reduce the microbial count of a microbially contaminated slurry.

[2] = cited from earlier work
[3] = test system: microbially contaminated (alkaline) slurry; conditions: cited from earlier work

## OCOCCOCO [EDDM, (ethylenedioxy)dimethanol]
[1]; 100 ppm EDDM, 1 hour
  microbial count: 1.6 * 10^5
[1]; 100 ppm EDDM, 2 hours
  microbial count: 1.7 * 10^5
[1]; 100 ppm EDDM, 3 hours
  microbial count: 1.6 * 10^5
[1]; 100 ppm EDDM, 24 hours
  microbial count: 3.4 * 10^4
[1]; 100 ppm EDDM, 3 days
  microbial count: 3.3 * 10^4
[1]; 100 ppm EDDM, 7 days
  microbial count: 5.6 * 10^3
[1]; 200 ppm EDDM, 1 hour
  microbial count: 1.6 * 10^5
[1]; 200 ppm EDDM, 2 hours
  microbial count: 1.1 * 10^5
[1]; 200 ppm EDDM, 3 hours
  microbial count: 1.2 * 10^5
[1]; 200 ppm EDDM, 24 hours
  microbial count: 2.9 * 10^4
[1]; 200 ppm EDDM, 3 days
  microbial count: 2.3 * 10^4
[1]; 200 ppm EDDM, 7 days
  microbial count: 1.7 * 10^3
[2]; 50-80° C., over a period of a few days, alkaline pH
  decline in active substance at elevated temperatures: no significant decline

## O=CCCCC=O [GDA, glutaraldehyde]
[1]; 10 ppm GDA, 1 hour
  microbial count: 1.2 * 10^5
[1]; 10 ppm GDA, 2 hours
  microbial count: 1.3 * 10^4
[1]; 10 ppm GDA, 3 hours
  microbial count: 2.6 * 10^3
[1]; 10 ppm GDA, 24 hours
  microbial count: <100
[1]; 10 ppm GDA, 3 days
  microbial count: 4.7 * 10^2
[1]; 10 ppm GDA, 7 days
  microbial count: 3.5 * 10^5
[1]; 20 ppm GDA, 1 hour
  microbial count: 2.2 * 10^3
[1]; 20 ppm GDA, 2 hours
  microbial count: 3.0 * 10^2
[1]; 20 ppm GDA, 3 hours
  microbial count: <100
[1]; 20 ppm GDA, 24 hours
  microbial count: <100
[1]; 20 ppm GDA, 3 days
  microbial count: <100
[1]; 20 ppm GDA, 7 days
  microbial count: 1.7 * 10^3
[3]
  time to sanitize a microbially contaminated (alkaline) slurry: 1 to 4 h
[2]; in the slurry after a few days
  degradation of active substance in the slurry: completely degraded
